ChEMBL document CHEMBL4834484, “Identification of isoform/domain-selective fragments from the selection of DNA-encoded dynamic library” (Bioorg Med Chem, 2021)

What was measured:
[1] = target: T1, NAD-dependent protein deacetylase sirtuin-3, mitochondrial (Homo sapiens, UniProt Q9NTG7); assay: Binding affinity to chip-immobilized recombinant human SIRT3 measured after 300 secs by surface plasmon resonance method
T1 sequence (Q9NTG7 whole entry): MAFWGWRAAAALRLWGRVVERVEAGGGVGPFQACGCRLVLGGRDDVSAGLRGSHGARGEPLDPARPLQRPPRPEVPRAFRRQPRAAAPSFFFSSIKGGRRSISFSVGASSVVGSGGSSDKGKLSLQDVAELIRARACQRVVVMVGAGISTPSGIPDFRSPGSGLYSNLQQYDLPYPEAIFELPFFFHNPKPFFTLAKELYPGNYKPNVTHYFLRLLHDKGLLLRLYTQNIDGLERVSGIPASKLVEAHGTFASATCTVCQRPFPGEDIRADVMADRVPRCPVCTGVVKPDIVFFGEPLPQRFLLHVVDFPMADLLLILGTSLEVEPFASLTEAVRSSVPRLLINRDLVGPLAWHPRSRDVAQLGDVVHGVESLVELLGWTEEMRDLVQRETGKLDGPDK

[2] = target: T2, NAD-dependent protein deacetylase sirtuin-2 (Homo sapiens, UniProt Q8IXJ6); assay: Binding affinity to chip-immobilized recombinant human SIRT2 measured after 300 secs by surface plasmon resonance method
T2 sequence (Q8IXJ6 whole entry): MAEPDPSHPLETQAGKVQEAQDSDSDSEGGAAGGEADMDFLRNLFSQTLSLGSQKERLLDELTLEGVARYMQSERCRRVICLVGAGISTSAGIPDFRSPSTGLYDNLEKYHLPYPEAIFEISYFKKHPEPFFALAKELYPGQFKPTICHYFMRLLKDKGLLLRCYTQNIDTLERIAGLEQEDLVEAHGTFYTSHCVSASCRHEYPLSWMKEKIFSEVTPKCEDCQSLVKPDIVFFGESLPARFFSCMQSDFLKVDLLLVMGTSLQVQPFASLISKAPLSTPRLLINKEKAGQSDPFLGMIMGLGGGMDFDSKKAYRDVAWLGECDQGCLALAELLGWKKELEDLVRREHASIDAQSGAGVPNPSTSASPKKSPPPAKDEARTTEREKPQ

[3] = target: T1, NAD-dependent protein deacetylase sirtuin-3, mitochondrial; assay: Inhibition of human recombinant SIRT3 assessed as inhibition of substrate deacetylation using Gln-Pro-Lys-Lys- (epsilon acetyl) AMC peptide as substrate in presence of NAD+ measured by fluorescence based analysis
[4] = target: T3, NAD-dependent protein deacetylase sirtuin-1 (Homo sapiens, UniProt Q96EB6); assay: Binding affinity to chip-immobilized recombinant human SIRT1 measured after 300 secs by surface plasmon resonance method
T3 sequence (Q96EB6 whole entry): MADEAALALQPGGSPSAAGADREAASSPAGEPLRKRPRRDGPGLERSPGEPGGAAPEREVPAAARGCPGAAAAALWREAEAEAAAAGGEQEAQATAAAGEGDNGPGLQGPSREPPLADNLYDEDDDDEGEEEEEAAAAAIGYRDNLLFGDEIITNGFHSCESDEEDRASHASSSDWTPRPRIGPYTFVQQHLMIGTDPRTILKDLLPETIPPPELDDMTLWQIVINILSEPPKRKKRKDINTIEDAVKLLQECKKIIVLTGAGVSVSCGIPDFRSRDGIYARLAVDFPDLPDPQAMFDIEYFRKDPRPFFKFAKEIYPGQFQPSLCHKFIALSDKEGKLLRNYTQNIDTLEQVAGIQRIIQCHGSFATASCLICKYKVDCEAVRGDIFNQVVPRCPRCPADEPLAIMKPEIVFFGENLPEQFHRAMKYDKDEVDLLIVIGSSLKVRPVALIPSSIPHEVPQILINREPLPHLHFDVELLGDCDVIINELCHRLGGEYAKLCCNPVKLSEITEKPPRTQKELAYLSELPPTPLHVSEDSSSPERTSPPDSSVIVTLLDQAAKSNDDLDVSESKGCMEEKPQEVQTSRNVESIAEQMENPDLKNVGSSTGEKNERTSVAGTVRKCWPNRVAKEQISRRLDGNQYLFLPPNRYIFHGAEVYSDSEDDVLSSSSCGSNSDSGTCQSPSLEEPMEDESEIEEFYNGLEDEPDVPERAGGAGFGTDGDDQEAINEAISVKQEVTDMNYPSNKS

[5] = target: T2, NAD-dependent protein deacetylase sirtuin-2; assay: Inhibition of human recombinant SIRT2 assessed as inhibition of substrate deacetylation using Gln-Pro-Lys-Lys- (epsilon acetyl) AMC peptide as substrate in presence of NAD+ measured by fluorescence based analysis
[6] = target: T3, NAD-dependent protein deacetylase sirtuin-1; assay: Inhibition of human recombinant SIRT1 assessed as inhibition of substrate deacetylation using Gln-Pro-Lys-Lys- (epsilon acetyl) AMC peptide as substrate in presence of NAD+ measured by fluorescence based analysis
[7] = target: T4, Bromodomain-containing protein 4 (Homo sapiens, UniProt O60885); assay: Displacement of SGRG-K(Ac)-GG-K(Ac)-GLG-K(Ac)-GGA-K(Ac)-RHRKVGG-K(Biotin) from Europium chelated human BRD4 bromodomain 1 (49 to 170 residues) measured after 2 hrs by TR-FRET assay
[8] = target: T4, Bromodomain-containing protein 4; assay: Displacement of SGRG-K(Ac)-GG-K(Ac)-GLG-K(Ac)-GGA-K(Ac)-RHRKVGG-K(Biotin) from Europium chelated human BRD4 bromodomain 2 (342 to 460 residues) measured after 2 hrs by TR-FRET assay
[9] = target: T5, NAD-dependent protein deacylase sirtuin-5, mitochondrial (Homo sapiens, UniProt Q9NXA8); assay: Binding affinity to chip-immobilized recombinant human SIRT5 measured after 300 secs by surface plasmon resonance method
[10] = target: T5, NAD-dependent protein deacylase sirtuin-5, mitochondrial; assay: Inhibition of human recombinant SIRT5 assessed as inhibition of substrate desuccinylation using Fluor de Lys-Succinyl green peptide as substrate in presence of NAD+ measured by fluorometric assay

T5 sequence (Q9NXA8 whole entry): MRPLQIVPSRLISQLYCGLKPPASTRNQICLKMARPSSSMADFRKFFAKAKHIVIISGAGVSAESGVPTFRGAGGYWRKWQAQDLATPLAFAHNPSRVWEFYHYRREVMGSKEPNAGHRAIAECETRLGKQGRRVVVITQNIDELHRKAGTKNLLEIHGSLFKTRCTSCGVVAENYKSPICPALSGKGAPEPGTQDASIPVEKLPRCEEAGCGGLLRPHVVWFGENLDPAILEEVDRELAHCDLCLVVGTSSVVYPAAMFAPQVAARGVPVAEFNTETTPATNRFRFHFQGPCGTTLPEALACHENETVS

IC50 [5] [µM] | Ki [5] [µM] | SMILES | also measured
22 | 6 | O=C(NCCOCCOCCOCCNC(=O)c1cccc(-c2cccnc2)c1)c1cccc(-c2cccnc2)c1 | Kd [1]: 297 µM; Kd [2]: 22 µM; Ki [3]: 214 µM; Kd [4]: 56 µM; Ki [6]: 35 µM
97 | 28 | COc1cc(CC(=O)NCCOCCOCCNC(=O)c2cccc(-c3cccnc3)c2)cc(OC)c1OC | –
– | – | CNC(=O)c1cn2c3c(c(N4CCN(C)CC4)c(F)cc3c1=O)OCC2C (stereo not given) | IC50 [7]: 1130 µM; IC50 [8]: 321 µM
25 | 7 | COc1cc(CC(=O)NCc2ccc(CNC(=O)c3cccc(-c4cccnc4)c3)cc2)cc(OC)c1OC | Kd [1]: 392 µM; Kd [2]: 25 µM; Ki [3]: 282 µM
32 | 9 | COc1cc(CC(=O)NCCOCCOCCNC(=O)c2cn3c4c(c(N5CCN(C)CC5)c(F)cc4c2=O)OCC3C)cc(OC)c1OC (stereo not given) | Kd [2]: 32 µM
– | – | CSCC(=O)NCCCCCC(=O)N(C)CCCN1c2ccccc2CCc2ccccc21 | IC50 [7]: 972 µM; IC50 [8]: 231 µM
– | – | CC1COc2c(N3CCN(C)CC3)c(F)cc3c(=O)c(C(=O)NCCCCCC(=O)N(C)CCCN4c5ccccc5CCc5ccccc54)cn1c23 (stereo not given) | IC50 [7]: 107 µM; IC50 [8]: 30 µM
383 | 111 | CC1COc2c(N3CCN(C)CC3)c(F)cc3c(=O)c(C(=O)NCCOCCOCCNC(=O)c4cn5c6c(c(N7CCN(C)CC7)c(F)cc6c4=O)OCC5C)cn1c23 (stereo not given) | –
– | – | CC1COc2c(N3CCN(C)CC3)c(F)cc3c(=O)c(C(=O)N(C)CCCN4c5ccccc5CCc5ccccc54)cn1c23 (stereo not given) | IC50 [7]: 227 µM; IC50 [8]: 41 µM
52 | 15 | CC1COc2c(N3CCN(C)CC3)c(F)cc3c(=O)c(C(=O)NCCCNC(=O)CCc4nc(-c5ccncc5)no4)cn1c23 (stereo not given) | –
186 | 54 | CC1COc2c(N3CCN(C)CC3)c(F)cc3c(=O)c(C(=O)NCCOCCOCCNC(=O)CCc4nc(-c5ccncc5)no4)cn1c23 (stereo not given) | –
39 | 11 | COc1cc(CC(=O)NCCCNC(=O)c2cn3c4c(c(N5CCN(C)CC5)c(F)cc4c2=O)OCC3C)cc(OC)c1OC (stereo not given) | Kd [2]: 39 µM
33 | 9 | COc1cc(CC(=O)NCCCCCCNC(=O)c2cn3c4c(c(N5CCN(C)CC5)c(F)cc4c2=O)OCC3C)cc(OC)c1OC (stereo not given) | Kd [2]: 33 µM
39 | 12 | O=C(NCCCCCCNC(=O)c1cccc(-c2cccnc2)c1)c1cccc(-c2cccnc2)c1 | Kd [2]: 40 µM; Kd [4]: 118 µM; Ki [6]: 73 µM
99 | 29 | O=C(NCCOCCOCCNC(=O)c1cccc(-c2cccnc2)c1)c1cccc(-c2cccnc2)c1 | –
193 | 56 | CC1COc2c(N3CCN(C)CC3)c(F)cc3c(=O)c(C(=O)NCc4ccc(CNC(=O)CCc5nc(-c6ccncc6)no5)cc4)cn1c23 (stereo not given) | –
24 | 7 | CC1COc2c(N3CCN(C)CC3)c(F)cc3c(=O)c(C(=O)NCCOCCOCCOCCNC(=O)CCc4nc(-c5ccncc5)no4)cn1c23 (stereo not given) | Kd [2]: 24 µM
– | – | CN(CCCN1c2ccccc2CCc2ccccc21)C(=O)CCCCCNC(=O)C[C@@H](Cc1ccccc1)NC(=O)OC(C)(C)C | Kd [9]: 2.47 µM; IC50 [10]: 183 µM; Ki [10]: 122 µM

IC50 [5] [µM] | Ki [5] [µM] | SMILES | also measured
44 | 13 | COc1cc(CC(=O)NCCCCCCNC(=O)c2cccc(-c3cccnc3)c2)cc(OC)c1OC | Kd [1]: 488 µM; Kd [2]: 44 µM; Ki [3]: 351 µM; Kd [4]: 139 µM; Ki [6]: 85 µM
107 | 31 | CC1COc2c(N3CCN(C)CC3)c(F)cc3c(=O)c(C(=O)NCCCCCCNC(=O)CCc4nc(-c5ccncc5)no4)cn1c23 (stereo not given) | –
186 | 54 | CC1COc2c(N3CCN(C)CC3)c(F)cc3c(=O)c(C(=O)NCc4ccc(CNC(=O)c5cn6c7c(c(N8CCN(C)CC8)c(F)cc7c5=O)OCC6C)cc4)cn1c23 (stereo not given) | –
– | – | O=C1CC(C(=O)NCCCNCC(=O)C2CC3CCC2C3)c2ccccc21 (stereo not given) | IC50 [6]: 330 µM; Ki [6]: 203 µM
303 | 88 | CC1COc2c(N3CCN(C)CC3)c(F)cc3c(=O)c(C(=O)NCCCNC(=O)c4cn5c6c(c(N7CCN(C)CC7)c(F)cc6c4=O)OCC5C)cn1c23 (stereo not given) | –
299 | 87 | COc1cc(CC(=O)NCCCNC(=O)c2cccc(-c3cccnc3)c2)cc(OC)c1OC | –
985 | 286 | COc1cc(CC(=O)NCc2ccc(CNC(=O)c3cn4c5c(c(N6CCN(C)CC6)c(F)cc5c3=O)OCC4C)cc2)cc(OC)c1OC (stereo not given) | –
316 | 92 | CC1COc2c(N3CCN(C)CC3)c(F)cc3c(=O)c(C(=O)NCCOCCOCCOCCNC(=O)c4cn5c6c(c(N7CCN(C)CC7)c(F)cc6c4=O)OCC5C)cn1c23 (stereo not given) | –
938 | 272 | O=C1CC(C(=O)NCCCCCCNCC(=O)C2CC3CCC2C3)c2ccccc21 (stereo not given) | IC50 [3]: 621 µM; Ki [3]: 447 µM; IC50 [6]: 78 µM; Ki [6]: 48 µM
– | – | O=C1CC(C(=O)NCCOCCOCCNCC(=O)C2CC3CCC2C3)c2ccccc21 (stereo not given) | IC50 [6]: 298 µM; Ki [6]: 183 µM
– | – | CNC(=O)CSC | IC50 [8]: 1160 µM
91 | 26 | O=C(NCc1ccc(CNC(=O)c2cccc(-c3cccnc3)c2)cc1)c1cccc(-c2cccnc2)c1 | –
7 | 2 | COc1cc(CC(=O)NCCOCCOCCOCCNC(=O)c2cn3c4c(c(N5CCN(C)CC5)c(F)cc4c2=O)OCC3C)cc(OC)c1OC (stereo not given) | Kd [2]: 7 µM
– | – | CSCC(=O)N(C)CCCN1c2ccccc2CCc2ccccc21 | IC50 [7]: 1320 µM; IC50 [8]: 153 µM
93 | 27 | COc1cc(CC(=O)NCCOCCOCCOCCNC(=O)c2cccc(-c3cccnc3)c2)cc(OC)c1OC | –
– | – | O=C1CC(C(=O)NCCOCCOCCOCCNCC(=O)C2CC3CCC2C3)c2ccccc21 (stereo not given) | IC50 [6]: 1050 µM; Ki [6]: 645 µM
– | – | O=C1CC(C(=O)NCc2ccc(CNCC(=O)C3CC4CCC3C4)cc2)c2ccccc21 (stereo not given) | IC50 [6]: 195 µM; Ki [6]: 120 µM
